This is an account of results in paper PMC7675038, “A Single‐Stranded DNA‐Encoded Chemical Library Based on a Stereoisomeric Scaffold Enables Ligand Discovery by Modular Assembly of Building Blocks” (Advanced Science, 2020).

The target of the assay is T1, HSA, human serum albumin (Homo sapiens, UniProt P02768).
T1 construct: gene ALB
Briefly: fluorescence polarization, off-DNA. In kind it is binding.

SMILES strings stand for the structures.

T1 sequence (P02768 25-609): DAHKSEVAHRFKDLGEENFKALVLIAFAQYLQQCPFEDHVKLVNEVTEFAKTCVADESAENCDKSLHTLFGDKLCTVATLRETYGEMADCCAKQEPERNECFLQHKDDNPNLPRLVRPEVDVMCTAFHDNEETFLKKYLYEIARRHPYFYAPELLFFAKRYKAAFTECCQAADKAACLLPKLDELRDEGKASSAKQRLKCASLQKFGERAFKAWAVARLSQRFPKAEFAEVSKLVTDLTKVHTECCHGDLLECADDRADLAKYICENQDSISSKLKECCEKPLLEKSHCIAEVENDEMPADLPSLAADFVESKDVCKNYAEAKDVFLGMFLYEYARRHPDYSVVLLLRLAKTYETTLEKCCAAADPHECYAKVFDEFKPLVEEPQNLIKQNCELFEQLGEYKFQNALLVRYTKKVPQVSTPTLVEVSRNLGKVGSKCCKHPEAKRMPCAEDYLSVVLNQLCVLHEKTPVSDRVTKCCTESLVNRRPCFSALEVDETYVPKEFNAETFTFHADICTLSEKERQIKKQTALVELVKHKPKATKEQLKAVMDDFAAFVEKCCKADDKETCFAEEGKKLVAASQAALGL

In turn, `Cc1ccc(C(=O)NCC(=O)N[C@H](CCC(=O)N[C@@H](CCC(N)=O)C(=O)O)C(=O)N2CCc3nc(-c4ccccc4)ncc3C2)cc1` [compound 16, 16] showed a Kd of 11 ± 2 µM.
Under `Cc1ccc(C(=O)NCC(=O)N[C@@H](CCC(=O)N[C@@H](CCC(N)=O)C(=O)O)C(=O)N2CCc3nc(-c4ccccc4)ncc3C2)cc1` [compound 17, 17] stands 5 ± 3 µM.
